Test results reported in paper PMC8707700, “Ru(III) Complexes with Lonidamine-Modified Ligands” (International Journal of Molecular Sciences, 2021).

Key:
[1] = Lipophilicity, shake-flask method water/n-octanol; assay type: physicochemical; details: UV-vis, mean ± SD
Description: The lipophilicity of complexes 15–20 was studied using a standard shake-flask method in a mixture of water/n-octanol. For the quantification of compounds in the water phase, UV-vis spectrophotometry was used. […] Among other complexes, as expected, 20 was the most lipophilic (Table 1).
N-octanol was saturated with water and with water saturated with n-octanol; mixture400 mL of n-octanol (water) and 100 mL of water (n-octanol) was stirred for 24 h; and then fractions were separated. The sample of the complex was dissolved in n-octanol and a series of solutions in octanol (300, 250, 3 × 200, 150, 100, and 50 μM) was prepared. Absorption spectra were recorded and the calibration curve for maximum absorption was plotted. From 200 μM solutions, the mixtures with water were prepared (1:1, 1:2, 2:1 v/v) and shaken for 15 min. The organic phase was separated by centrifugation. The concentration of the complex in n-octanol was determined from the calibration curve and lipophilicity (logP) was calculated as log P = log [(C0–Caq)/Caq].

[2] = tested on: MCF-7 breast carcinoma cells; assay: Cellular ruthenium accumulation by atomic absorption spectrometry; assay type: cell-based; details: MCF-7, 20 μM
Description: The cellular accumulation of ruthenium complexes was studied by atomic absorption spectrometry. The MCF-7 breast carcinoma cells were incubated with 16 and 20 for 1–24 h in DMEM with or without fetal bovine serum to reduce the binding of complexes with proteins. The accumulation was dependent on the linker’s length. […] The ruthenium complex entered the cells relatively fast; by 4 h, no notable further increase of the Ru content was observed (Figure 6). […] The negative effect of serum on the cellular Ru accumulation has been reported for other ruthenium species; however, significant effects were detectable only after longer exposure (24 h).
The intracellular accumulation of metal-containing compounds was determined as described. […]
For metal and protein quantification, pellets were resuspended in 250 µL of deionised water and lysed for 30 min with sonication. The protein content in lysates was determined by the Bradford method. […] Drying steps were adjusted, the atomisation temperature was set to 2400 °C, and the reading time was increased to 7 s. Ruthenium was quantified at 349.8945 nm. The mean integrated absorbance of triple injections was used throughout the measurements. Results (average of the two experiments) were expressed as nmol metal/mg protein.

[3] = molecular target: T1, isolated rat TrxR1 (rat liver TrxR) (Rattus norvegicus, UniProt O89049); assay: Inhibition of purified TrxR (DTNB reduction); assay type: biochemical; details: isolated enzyme, 75 min 37 °C preincubation; mean ± SD, three measurements
T1 construct: Commercially available rat liver TrxR; purchased Sigma Aldrich; host or cells: rat liver
T1 sequence (O89049 1-499): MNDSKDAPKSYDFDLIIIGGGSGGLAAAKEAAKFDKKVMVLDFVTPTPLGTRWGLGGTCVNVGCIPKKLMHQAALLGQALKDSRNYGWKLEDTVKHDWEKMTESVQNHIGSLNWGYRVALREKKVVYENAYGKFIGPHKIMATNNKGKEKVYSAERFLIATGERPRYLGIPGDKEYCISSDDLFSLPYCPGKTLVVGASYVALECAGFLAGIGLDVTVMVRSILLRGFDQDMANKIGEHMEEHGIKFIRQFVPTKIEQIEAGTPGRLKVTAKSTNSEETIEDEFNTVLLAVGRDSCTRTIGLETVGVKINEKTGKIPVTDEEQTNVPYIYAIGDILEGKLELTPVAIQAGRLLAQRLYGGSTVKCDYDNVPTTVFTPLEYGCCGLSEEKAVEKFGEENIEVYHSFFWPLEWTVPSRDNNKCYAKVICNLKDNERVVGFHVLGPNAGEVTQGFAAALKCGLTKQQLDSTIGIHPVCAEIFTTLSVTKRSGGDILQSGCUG
Description: The activity of TrxR [40, 54] was determined in a microplate format. Commercially available rat liver TrxR (Sigma Aldrich, St. Louis, MO, USA) was diluted with distilled water to 3.5 Unit/mL. In total, 25 μL aliquots of this solution were mixed with 25 μL of a potassium phosphate buffer, pH 7.0, with or without tested compounds. Fifty µL of 0.5% v/v dimethyl formamide in buffer was served as a blank. […] For this purpose, 25 µL of the highest test concentration of each compound and 25 µL of phosphate buffer (no enzyme) were mixed. Samples were incubated with moderate shaking for 75 min at 37 °C in a 96-well plate. To each well, 225 μL of the reaction mixture (500 μL of potassium phosphate buffer, pH 7.0, 80 μL of 100 mM ethylenediaminetetraacetic acid (EDTA), 20 μL of 0.2% bovine serum albumin, 100 μL of 20 mM NADPH (nicotinamide adenine dinucleotide phosphate), and 300 μL of water) was added; the reaction was initiated by the addition of 25 μL of 20 mM DTNB (5,5′-dithiobis(2-nitrobenzoic acid)) solution in ethanol. The formation of 5-TNB was monitored at 405 nm 10 times at 35 s intervals by a VICTOR X4 Plate Reader (Perkin Elmer). […] IC50 values were calculated as the concentration of the compound that decreased the enzymatic activity of the control (no compound) by 50%. Values are mean ± SD of the three independent measurements.

Substance	Log P [1]	cellular Ru accumulation ([2]; 1–24 h)	IC50 [3] [µM]	cellular Ru accumulation with serum in the culture medium ([2]; serum present)
Na[trans-Ru(DMSO)(C30H37Cl2N5O)Cl4] [Compound 20]	1.3 ± 0.2	accumulated more readily than 16	8.5 ± 0.3	
Na[trans-Ru(DMSO)(C21H19Cl2N5O)Cl4] [Compound 16]			20.4 ± 0.1	only very low uptake
